Reference: PubChem BioAssay (NCI)
Several values for one entry are separate records, joined by “and”; a condition that tells them apart may be missing. Identical values can stand only once.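 Interpolation was linear, between the two tested concentrations surrounding the appropriate level; five concentrations were tested over 48 hours in 96-well plates. GI50 marks 50% less growth. TGI: concentration producing complete growth inhibition.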

Columns and labels:
Test in all cases: NCI-60 cell line screen, 48 h
M14 melanoma = tested on: M14 melanoma
UACC-257 melanoma = tested on: UACC-257 melanoma
ACHN renal = tested on: ACHN renal
HOP-62 NSCLC = tested on: HOP-62 NSCLC
SK-MEL-2 melanoma = tested on: SK-MEL-2 melanoma
MALME-3M melanoma = tested on: MALME-3M melanoma
OVCAR-3 ovarian = tested on: OVCAR-3 ovarian
NCI-H226 lung = tested on: NCI-H226 lung
NCI-H460 lung = tested on: NCI-H460 lung
CAKI-1 renal = tested on: CAKI-1 renal

Compound | TGI (M14 melanoma) | TGI (UACC-257 melanoma) | TGI (ACHN renal) | TGI (HOP-62 NSCLC) | TGI (SK-MEL-2 melanoma) | TGI (MALME-3M melanoma) | TGI (OVCAR-3 ovarian) | TGI (NCI-H226 lung) | TGI (NCI-H460 lung) | TGI (CAKI-1 renal) | GI50 (M14 melanoma) | GI50 (UACC-257 melanoma) | GI50 (ACHN renal) | GI50 (HOP-62 NSCLC) | GI50 (MALME-3M melanoma) | GI50 (OVCAR-3 ovarian) | GI50 (NCI-H226 lung) | GI50 (NCI-H460 lung) | GI50 (CAKI-1 renal) | GI50 (SK-MEL-2 melanoma)
C[Si](C)(C)[C@@]1([Se]c2ccccc2)CC[C@@H]1C(=O)c1ccccc1 | > 100 µM | > 100 µM | > 100 µM | > 100 µM | > 100 µM | > 100 µM | > 100 µM | > 100 µM | > 100 µM | > 100 µM |  |  |  |  |  |  |  |  |  | 
NC(=O)c1ccc(-c2c3ccccc3cc3c2ccc2ccccc23)cc1 | 20.1 µM | > 100 µM | 62 µM | 23.2 µM |  | 54 µM | 6.98 µM | 52.3 µM | 14.9 µM | 52.8 µM | 2.04 µM | 12.1 µM | 6.62 µM | 4.28 µM | 4.99 µM | 1.94 µM | 6.97 µM | 3.31 µM | 4.54 µM | 
c1ccc(CN(Cc2ccccn2)Cn2cccn2)nc1 | > 100 µM | > 100 µM | > 100 µM | > 100 µM | > 100 µM |  | > 100 µM |  | > 100 µM | > 100 µM |  |  |  |  |  |  |  |  |  | 
COc1cc(C(N)=O)c(OC)c(OC)c1OC | > 100 µM |  | > 100 µM | > 100 µM | > 100 µM |  | > 100 µM | > 100 µM | > 100 µM |  |  |  |  |  |  |  |  |  |  | 
OCC1CC2CC1C1(C2)OCCO1 (centres undefined) | > 100 µM | > 100 µM | > 100 µM | > 100 µM | > 100 µM | > 100 µM | > 100 µM | > 100 µM | > 100 µM | > 100 µM |  |  |  |  |  |  |  |  |  | 
O=C(N/N=C\c1cc(Cl)ccc1O)N/N=C/c1cc(Cl)ccc1O | > 100 µM | > 100 µM | > 100 µM | > 100 µM | > 100 µM | > 100 µM | > 100 µM | > 100 µM | > 100 µM | > 100 µM | 5.24 µM | 6.6 µM | 1.17 µM | 2.49 µM | 34.3 µM | 2.12 µM | > 100 µM | 0.518 µM | 3.36 µM | > 100 µM
N#CC(/C(=N\NC(N)=S)C(=O)NC1C2CC3CC(C2)CC1C3)c1ccc(Cl)cc1 (centres undefined) | > 100 µM | > 100 µM | > 100 µM | > 100 µM | > 100 µM | > 100 µM | > 100 µM | > 100 µM | > 100 µM | > 100 µM |  |  |  |  |  |  |  |  |  | 
O=C1CCCc2c(O)ccc(O)c21 | > 100 µM | > 100 µM | > 100 µM | > 100 µM | > 100 µM | > 100 µM | > 100 µM | > 100 µM | > 100 µM |  |  |  |  |  |  |  |  |  |  | 
Nc1nc(Cl)cc(NCCCCCCCCCCNc2cc(Cl)nc(N)n2)n1 | > 100 µM | > 100 µM | 0.0447 µM | > 100 µM | > 100 µM |  | > 100 µM | 20.3 µM | > 100 µM | > 100 µM |  |  |  |  |  |  |  |  |  | 
O=C(O)c1c(Cl)c(Cl)c(Cl)c(Cl)c1-c1c2cc(I)c(=O)c(I)c-2oc2c(I)c(O)c(I)cc12 | > 200 µM | 163 µM | > 200 µM | 87.4 µM | 78.8 µM |  | 72.1 µM | 90.9 µM | > 200 µM | 86.7 µM | 58.7 µM | 53.5 µM | 54.8 µM | 80.7 µM and 31 µM |  | 32.1 µM and 33 µM | 79.7 µM and 38.8 µM | 58.8 µM | 39 µM | 81.4 µM and 37 µM
Fc1cc(Nc2ccc3c(OCCCN4CCOCC4)cccc3n2)ccc1Cl | 4.42 µM | 4.25 µM | 10.8 µM | 3.43 µM | 4.04 µM | 4.36 µM | 10.1 µM | 7.83 µM |  | 5.1 µM | 2.05 µM | 2.18 µM | 3.09 µM | 1.71 µM | 1.91 µM | 3.08 µM | 2.76 µM |  | 1.89 µM | 1.96 µM
NC(=O)Cn1c(=O)[nH]c(=O)c2[nH]cnc21 | > 100 µM | > 100 µM | > 100 µM | > 100 µM | > 100 µM | > 100 µM | > 100 µM | > 100 µM | > 100 µM |  |  |  |  |  |  |  |  |  |  | 
OCC(O)C(OC1OC(CO)C(O)C(O)C1O)c1nn(-c2ccc(F)cc2)c2nc3cc(Cl)c(Cl)cc3cc12 (centres undefined) | > 100 µM | > 100 µM | > 100 µM | > 100 µM |  | > 100 µM | > 100 µM |  | > 100 µM |  |  |  |  |  |  |  |  |  |  | 
NC(=O)c1ccc(NC(=O)c2oc3ccccc3c2-c2cnn(-c3ccccc3)c2)cc1 | > 100 µM | > 100 µM | > 100 µM | 46.6 µM | > 100 µM | > 100 µM |  | > 100 µM | > 100 µM |  | > 100 µM | > 100 µM | 5.03 µM | 3.33 µM | > 100 µM |  | 2.98 µM | > 100 µM |  | 20.4 µM
O=C(O)C1C2CC3CC2CC31 (centres undefined) | > 100 µM | > 100 µM | > 100 µM | > 100 µM | > 100 µM | > 100 µM | > 100 µM |  | > 100 µM | > 100 µM |  |  |  |  |  |  |  |  |  | 
CN(C)/C(=N/C(=O)Nc1ccccc1)SCc1ccccc1 | > 100 µM | > 100 µM | > 100 µM | > 100 µM | > 100 µM | > 100 µM | > 100 µM | > 100 µM |  | > 100 µM |  |  |  |  |  |  |  |  |  | 
Cc1ccc(C)c(NC(=O)CCc2n[nH]c(=S)o2)c1 | > 100 µM | > 100 µM | > 100 µM | > 100 µM |  | > 100 µM | > 100 µM | > 100 µM | > 100 µM | > 100 µM |  |  |  |  |  |  |  |  |  | 
CCOc1ccc(N2C(N)=NC(N)=NC2(C)C)cc1 |  | > 100 µM | > 100 µM | > 100 µM | > 100 µM | > 100 µM | > 100 µM | > 100 µM | > 100 µM | > 100 µM |  | > 100 µM | > 100 µM | 95 µM | 56.4 µM | > 100 µM | > 100 µM | 39.8 µM | > 100 µM | > 100 µM
